One block for each molecule: values may come before it.
Legend:
hypertensive patients = assay: Eplerenone vs. amlodipine, ambulatory blood pressure monitoring, 16 weeks (Example D-12); type: in vivo, human; conditions: in vivo
Text: This was a multicenter, randomized, double-blind, active-controlled, placebo run-in, parallel group study. […] If symptomatic hypotension occurred at Week 2 or Weeks 4, 6, 8, or 12 and the patient was on the lowest dose level (Dose Level 1), the patient was to be withdrawn. Study assessments at protocol-specified timepoints included BP, heart rate, ABPM, Holter recording, clinical laboratory analyses including serum potassium levels, concomitant medications. Throughout the study, safety was assessed by routine clinical laboratory analyses, vital signs, physical examinations, 12-lead ECG, and monitoring of adverse events.

[1] = system: older patients with systolic hypertension and/or widened pulse pressure; assay: Eplerenone versus amlodipine in systolic hypertension in older people, 24 weeks (Examples A-19, D-8); type: in vivo, human
Text: At Week 10 or thereafter, if SBP is =170 mmHg on two consecutive visits, one to three days apart, and the patient is on the maximum dose of study drug, he/she must be withdrawn. Patients will receive double-blind study medication for a total of 24 weeks. Table A-19A illustrates the above-described dosing scheme.
Heart rate, BP, serum potassium levels, concomitant medications and adverse events will be assessed at each visit. […] Special studies: collagen markers [aminoterminal propeptide of type III procollagen (PIIINP), 7S domain of type IV collagen (7SIVC), and type I collagen telopeptide (ICTP)], plasma […] (PAI-1), tissue plasminogen activator (t-PA), microalbuminuria, and at selected sites, Ambulatory Blood Pressure Monitoring (ABPM) and arterial compliance will be done at Weeks 0, 14, and 24 or at Final Visit. Quality of Life Questionnaires will be done at visit 2A (beginning of single blind) and Weeks 0, 14, and 24 or at Final Visit. DNA genotyping will be performed at baseline.
In older patients, elevated systolic BP and wide pulse pressure predict cardiovascular risk better than diastolic BP. Reduced vascular compliance and intraglomerular hypertension typically accompany isolated systolic hypertension in older people.
Changes in arterial compliance, measured by pulse-wave velocity, microalbuminuria, and adverse effects (AEs) were assessed at baseline and after 24 weeks of therapy.

[2] = system: saline-loaded adrenalectomized rats treated with aldosterone; assay: Antimineralocorticoid activity in saline-loaded adrenalectomized rats treated with aldosterone (Example A-2); type: in vivo
Experimental: Methods: The antimineralocorticoid pharmacological activity was determined in saline-loaded adrenalectomized rats treated with aldosterone. […] Urinary sodium, potassium and water excretion were measured.

[3] = system: L-NAME/Angiotensin II/NaCl-treated rats; assay: L-NAME/Angiotensin II/NaCl model of cardiac and renal injury (Example A-1); type: in vivo, Male Wistar rats; conditions: Epl 100 mg/kg/day p.o., ALDO 40 μg/kg/day in adrenalectomized rats
Experimental: Animals. Male Wistar rats (n=44), weighing 200 to 225 grams, and obtained from Charles River Laboratories (Wilmington, Mass.) were used in the study. All animals were housed in a room lighted 12 hours per day at an ambient temperature of 22±1° C. Animals were allowed one week to recover after arrival and had free access to Purina Lab Chow 5001 (Ralston Purina Inc, St. Louis, Mo.) and tap water until the initiation of the experiment. After initiation of the protocols, animals in all groups were placed in individual metabolic cages, handled and weighed daily. Twenty-four hour fluid intake, food intake and urine output were measured daily. […] On day 14 of L-NAME treatment, animals were decapitated, trunk blood was collected into chilled tubes containing ethylene diamine tetraacetic acid and the heart and kidneys were removed, blotted dry and immediately weighed. […] Drugs. Eplerenone was supplied by G.D. Searle Pharmaceuticals (St. […] Dexamethasone was dissolved in sesame oil and administered as a single subcutaneous dose (12 μg/kg/day) every day. This dose of dexamethasone has been reported to, maintain normal weight gain, glomerular filtration rate, and fasting plasma glucose and insulin levels in adrenalectomized rats. Stanton, B., Giebisch G et al. J. Clin. Invest 1985 75:1317-1326. The experiment was concluded on day 14 of L-NAME treatment. […] (Hou J et al. J. Clin. Invest 1995 96:2469-2477. […] This lower dose induced lesions in stroke-prone spontaneously hypertensive rats. (Rocha R et al. […] Dexamethasone, aldosterone and L-NAME were purchased from Sigma Chemical Co. (St. Louis, Mo.). […] Surgical Procedure. […] Bilateral adrenalectomy was performed using a dorsolumbar approach, making separate incisions on each side. […] No post operative deaths occurred. Assays and Analyses. Systolic blood pressure was measured in awake animals by tail-cuff plethysmography using a Natsume KN-210 manometer and tachometer (Peninsula Laboratories Inc, Belmont, Calif.). Rats were warmed at 37° C. for 10 minutes and allowed to rest quietly in a Lucite chamber before measurement of blood pressure. Urinary protein concentration was determined in urine collected on the last day of the experiment using the sulfosalicylic acid turbidity method. […] Plasma aldosterone concentration was determined using a standard radioimmunoassay-kit from Diagnostic Products Co. (Los Angeles, Calif.). Plasma renin activity (“PRA”) was determined by radioimmunoassay detection of generated angiotensin I (DiaSorin Inc., Stillwater, Minn.). Histology. Hearts were stained with collagen specific dye Sirius red for determination of fibrosis as reported elsewhere. (Young M et al. Am. J. Physiol 1995 269:[…]-[…]). Interstitial collagen was determined using an automated image analyzer. The hearts were also stained with hematoxylin and eosin for light microscopic analysis. Two or three slices of different sections of the heart containing both right and left ventricle were analyzed from each animal. […] Glomerular damage, when present, was characterized as the presence of either segmental or global sclerosis with ischemic or thrombotic changes. Renal arterial and arteriolar damage was categorized as the presence of fibrinoid necrosis of the vascular wall. The renal arterial and arteriolar profiles presenting damage were counted and the number of injured vessels per section was divided by the number of glomeruli in the same section in order to normalize for the amount of tissue examined. […] Statistical analysis. Data were tested for normality using the Kolmogorov-Smirnov test. Systolic blood pressure was analyzed using repeated measures-analysis of variance for time and treatment group. One-way analysis of variance was used for normally distributed data with one grouping variable. Post-hoc analysis was performed using Newman Keuls multiple-comparison test. Data that were not normally distributed were analyzed with the Kruskal-Wallis test. […]

[4] = system: saline-hydrated conscious dogs treated with aldosterone; assay: Antimineralocorticoid action in saline-hydrated conscious dogs treated with aldosterone (Example A-2); type: in vivo; conditions: aldosterone i.v. infusion; antagonist 10 mg/kg orally
[5] = system: saline-loaded adrenalectomized rats treated with aldosterone; assay: Subcutaneous vs. oral eplerenone in saline-loaded adrenalectomized rats treated with aldosterone (Example A-3); type: in vivo
Experimental: Urinary sodium, potassium and water excretion were measured. The results are expressed as the ratio of excreted urinary sodium to potassium (Na/K)±SEM.

[6] = system: uninephrectomized rats given 1% NaCl and aldosterone infusion; assay: Volume expanded hypertensive rats, telemetry (Example A-4); type: in vivo; conditions: 24 h average after three weeks
[7] = Dissolution rate and physical stability of solid state forms of eplerenone; type: physicochemical; conditions: temperatures below the enantiotropic transition temperature, versus Form H
[8] = after 24 weeks, titration-to-effect

Edema rates (%) ([1]; 24-week study): 25.2% | peripheral edema frequency ([1]; 24 weeks): 25.2% | symptoms with significant and clinically meaningful worsening in distress from Baseline (QoL) ([1]; 24 weeks): 21 symptoms
SMILES: CCOC(=O)C1=C(COCCN)NC(C)=C(C(=O)OC)C1c1ccccc1Cl (centres unmarked) [Amlodipine, reference compound]
incidence of peripheral edema (hypertensive patients): greater incidence of peripheral edema | safety and tolerability (hypertensive patients): safe and well tolerated | reduction in pulse pressure ([1]; 24 weeks): −13.4 mmHg | reduction in SBP ([1]; 24 weeks, EPL 50-200 mg QD, AML 2.5-10 mg QD): −20.1 mmHg | Pulse Pressure (change) [1, 8]: −13.4 ± 0.95 mmHg | Systolic BP (change) [1, 8]: −20.1 ± 1.13 mmHg | safety and tolerability ([1]; in vivo): safe and well tolerated | Δ microalbuminuria (%) ([1]; only for patients with baseline microalbuminuria (>30 mg/g), 24 weeks): −10.4% | reduction in UACR ([1]; patients with baseline microalbuminuria (>30 mg/g)): −3.3%

SMILES: C[C@]12CCC(=O)C=C1CC[C@@H]1[C@@H]2[C@@H](O)C[C@]2(C=O)[C@@H](C(=O)CO)CC[C@@H]12 [Aldosterone]
Urinary Na/K ± SEM ([2]; aldosterone alone): 1.68 ± 0.04 | HW ([3]; end of experiment (day 14)): 951 ± 16 mg | HW/BW (cardiac hypertrophy index) ([3]; end of experiment (day 14)): 3.57 ± .06 mg/g | SBP ([3]; end of experiment): 192 ± 7 mmHg | Na/K Ratio [4]: 0.09 | Urinary Excretion Potassium [4]: 10.5 mmol/2 h | Urinary Excretion Sodium [4]: 1.0 mmol/2 h | Mean Na/K ([5]; Table A-3A, aldosterone alone): 1.68 | Mean Na/K ([5]; Table A-3B, aldosterone alone): 1.21 | HR: Heart Rate ([6]; aldosterone & vehicle): 346 ± 6 beats/min | SAP: Systolic arterial pressure ([6]; aldosterone & vehicle): 202 ± 7 mmHg

SMILES: COC(=O)[C@@H]1CC2=CC(=O)CC[C@]2(C)[C@@]23O[C@@H]2C[C@@]2(C)[C@@H](CC[C@@]24CCC(=O)O4)[C@H]13 [Form L]
physical stability [7]: greater physical stability

SMILES: CC(=O)S[C@@H]1CC2=CC(=O)CC[C@]2(C)[C@H]2CC[C@@]3(C)[C@@H](CC[C@@]34CCC(=O)O4)[C@H]12 [Spironolactone]
Urinary Na/K ± SEM ([2]; aldosterone & antagonist 1 mg/kg by gavage): 2.26 ± 0.25 | Urinary Na/K ± SEM ([2]; aldosterone & antagonist 3 mg/kg by gavage): 2.90 ± 0.25 | Urinary Na/K ± SEM ([2]; aldosterone & antagonist 10 mg/kg by gavage): 4.38 ± 0.26 | Na/K Ratio [4]: 1.7 | Urinary Excretion Potassium [4]: 7.4 ± 0.7 mmol/2 h | Urinary Excretion Sodium [4]: 12.6 ± 2 mmol/2 h | Mean Na/K ([5]; Table A-3A, aldosterone + antagonist 10 mg/100 g rat): 1.56 | Mean Na/K ([5]; Table A-3A, aldosterone + antagonist 30 mg/100 g rat): 3.02 | Mean Na/K ([5]; Table A-3A, aldosterone + antagonist 100 mg/100 g rat): 4.02 | HR: Heart Rate ([6]; aldosterone & antagonist 100 mg/kg s.c.): 338 ± 4 beats/min | HR: Heart Rate ([6]; aldosterone & antagonist 200 mg/kg s.c.): 336 ± 7 beats/min
